Entries after “also recorded” stand apart in the source; their conditions may differ.
Target: T1, F508del CFTR (Homo sapiens, UniProt P13569, DEL508-508)
T1 construct: expressed in transfected cells; host or cells: CFBE41o- cells overexpressing F508del CFTR and HS-YFP (YFP-H148Q/I152L), a gift from N. Pedemonte, Gaslini Institute
Assay: F508del CFTR functional rescue (corrector) HS-YFP single-cell assay
Assay type: cell-based
Conditions: CFBE41o- YFP-F508del cells; for F508del CFTR rescue (corrector) activity: 48 h incubation, 200 nM
Experimental: To verify the possibility that the title compounds may act as correctors in CFBE41o-, overexpressing F508del and the high sensitivity halide-sensing yellow fluorescent protein (HS-YFP) YFP-H148Q/I152L, we examined the effect of 48 h preincubation with vehicle or the TMA analogs or TMA or VX809 (Lumacaftor), as a positive control.
At the time of the assay, the correction of the F508del-CFTR function was evaluated in single-cell analysis by measuring the decrease in YFP fluorescence after the concomitant addition of extracellular iodide and the activating cocktail (20 μM forskolin and 5 μM VX770), in the presence or absence of the 10 μM CFTR inhibitor, CFTRinh-172. […] At least two derivatives show CFTR activity similar to that of the parent TMA.
The effect of TMA analogs on CFTR function was tested in CFBE41o- overexpressing F508del and the high sensitivity halide-sensing yellow fluorescent protein (HS-YFP) YFP-H148Q/I152L (a generous gift from N. Pedemonte, Gaslini Institute, Genova, Italy). YFP CF cells were seeded on round glass coverslips and preincubated for 48 h with vehicle or test compounds or VX809 or TMA. At the time of the assay, cells were washed in Dulbecco’s PBS (in mM: 137 NaCl, 2.7 KCl, 8.1 Na2HPO4, 1.5 KH2PO4, 1 CaCl2, and 0.5 MgCl2, pH 7.4) and subsequently incubated with a stimulation cocktail (20 μM forskolin and 5 μM VX770) in the presence and absence of 10 μM CFTR inhibitor, CFTRInh-172 (Sigma), for 30 min. The coverslips were then transferred on a Nikon TMD inverted microscope through a Nikon Fluor 40 objective. The signal was acquired with a Hamamatsu C2400–97 charge-coupled intensified video camera at a rate of 1 frame/3 s. The fluorescence coming from every single cell was analyzed by custom software (Spin, Vicenza, Italy). The results are presented as transformed data to obtain the percentage signal variation (Fx) relative to the time of addition of the stimulus, according to the equation: Fx = ([Ft − Fo]/Fo) × 100, where Ft and Fo are the fluorescence values at time t and at the time of stimulus addition, respectively. The assay of each sample consists of a continuous 99-s fluorescence reading with 30 s before and 69 s after injection of the iodide-rich Dulbecco’s PBS (in mM: 137 NaI, 2.7 KCl, 8.1 Na2HPO4, 1.5 KH2PO4, 1 CaCl2, and 0.5 MgCl2, pH 7.4) to reach a final iodide concentration of 50 mM [20]. The different sensitivity of HS-YFP toward iodide and chloride allows assays to be performed by measuring the transport of anions through the plasma membrane as changes in cell fluorescence. For this assay, cells expressing HS-YFP are equilibrated in a physiological chloride-rich saline solution (e.g., Dulbecco’s PBS). During fluorescence reading, cells are exposed to a high concentration of iodide. Iodide influx quenches the cell fluorescence with a rate that depends on the permeability of the cell membrane to halides, and therefore, on the activity of the anion channels or transporters.
Figure 4 Evaluation of different TMA analogs as F508del CFTR correctors in CFBE41o- YFP-F508del cells. Correction of F508del-CFTR function was assessed, in a single cell, by measuring the decrease in YFP fluorescence upon addition of extracellular iodide and with the activating cocktail, in the presence or absence of CFTR inhibitor, CFTRInh-172. Iodide influx was tested under control condition (vehicle) or after 48 h incubation with the correctors 200 nM or 1 μM VX809. The YFP fluorescence decay rate was calculated by fitting the fluorescence data with an exponential function of time courses. CFTR activity was obtained by the difference between the fluorescence decay rate of YFP in the presence and absence of CFTRInh-172. Fluorescence coming from every single cell of at least five cells per field was recorded. Each bar corresponds to the mean ± SEM of data points coming from at least three different experiments (5–10 different cells/each experiment). […]

T1 sequence (P13569 with tags, fused parts or gaps DEL508-508): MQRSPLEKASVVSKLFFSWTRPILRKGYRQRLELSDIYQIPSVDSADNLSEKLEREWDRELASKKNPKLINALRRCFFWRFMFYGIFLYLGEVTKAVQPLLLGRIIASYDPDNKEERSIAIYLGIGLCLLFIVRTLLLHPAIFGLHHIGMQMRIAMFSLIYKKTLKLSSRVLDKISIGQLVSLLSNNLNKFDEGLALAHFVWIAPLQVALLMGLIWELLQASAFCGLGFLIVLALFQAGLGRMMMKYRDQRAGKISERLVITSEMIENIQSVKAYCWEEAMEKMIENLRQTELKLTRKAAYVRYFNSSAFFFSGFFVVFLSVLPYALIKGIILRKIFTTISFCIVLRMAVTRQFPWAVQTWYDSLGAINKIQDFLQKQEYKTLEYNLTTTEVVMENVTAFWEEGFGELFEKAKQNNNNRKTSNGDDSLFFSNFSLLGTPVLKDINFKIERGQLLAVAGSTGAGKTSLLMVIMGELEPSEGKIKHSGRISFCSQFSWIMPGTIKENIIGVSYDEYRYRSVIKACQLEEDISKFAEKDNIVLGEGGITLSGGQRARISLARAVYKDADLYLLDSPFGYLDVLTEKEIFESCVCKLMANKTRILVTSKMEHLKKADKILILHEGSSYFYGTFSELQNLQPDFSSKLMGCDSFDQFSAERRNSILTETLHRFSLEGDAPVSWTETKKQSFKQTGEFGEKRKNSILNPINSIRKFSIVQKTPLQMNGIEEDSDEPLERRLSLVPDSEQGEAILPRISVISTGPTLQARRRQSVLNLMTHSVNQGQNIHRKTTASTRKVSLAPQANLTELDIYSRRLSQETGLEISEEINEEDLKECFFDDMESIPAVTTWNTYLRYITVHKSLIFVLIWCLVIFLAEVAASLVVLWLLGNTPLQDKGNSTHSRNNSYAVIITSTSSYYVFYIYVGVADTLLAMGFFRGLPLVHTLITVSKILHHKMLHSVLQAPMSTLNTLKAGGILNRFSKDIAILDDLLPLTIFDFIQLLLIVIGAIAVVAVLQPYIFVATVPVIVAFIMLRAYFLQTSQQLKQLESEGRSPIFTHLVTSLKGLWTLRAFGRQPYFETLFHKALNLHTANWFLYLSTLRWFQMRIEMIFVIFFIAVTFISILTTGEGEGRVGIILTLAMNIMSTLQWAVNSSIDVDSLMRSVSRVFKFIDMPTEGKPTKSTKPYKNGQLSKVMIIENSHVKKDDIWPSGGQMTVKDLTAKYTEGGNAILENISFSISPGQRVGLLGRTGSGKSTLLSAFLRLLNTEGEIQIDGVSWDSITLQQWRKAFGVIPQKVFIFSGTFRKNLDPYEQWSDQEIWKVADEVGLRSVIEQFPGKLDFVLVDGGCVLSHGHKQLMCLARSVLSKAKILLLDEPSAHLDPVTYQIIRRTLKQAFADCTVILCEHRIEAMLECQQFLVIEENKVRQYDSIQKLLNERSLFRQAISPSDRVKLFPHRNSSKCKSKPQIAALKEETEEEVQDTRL

Row | SMILES | F508del CFTR rescue (corrector) activity | F508del CFTR rescue (corrector) activity (listed as 12) | reduction in YFP fluorescence induced by iodide influx compared to vehicle (48 h treatment, representative time courses) | F508del CFTR rescue (corrector) activity (listed as 25)
1 | Cc1cc2c(-c3ccccc3)cc(=O)oc2c2c(C)coc12 [4-PhDMA] | active; also recorded: most active derivatives of the series | promising F508del CFTR rescue ability | greater reduction in YFP fluorescence | –
2 | Cc1cc(=O)oc2c1cc(-c1ccc(N)cc1)c1occ(C)c12 [pANDMA] | most active derivatives of the series | – | – | promising F508del CFTR rescue ability
3 | Cc1cc(=O)oc2c1cc(-c1ccccc1)c1occ(C)c12 [6-PhDMA] | inactive | – | – | –
